The values below come from publication PMC10060280, “The influence of cyclooxygenase inhibitors on kynurenic acid production in rat kidney: a novel path for kidney protection?” (Pharmacological Reports, 2023).

The structures appear in SMILES notation. Where a name gives a salt, the structure may show the parent alone. Read-outs that look alike come from different tables or passages of the source.

The IC50 is the concentration needed to halve the response being measured.

Test [1] deals with KYNA production in rat kidney. Put plainly: KYNA synthesis in rat kidney homogenate in vitro. As to conditions: 10 μM L-KYN; for IC50: 2 h, 37 °C, read-out: IC50 of KYNA production inhibition. In kind it is biochemical. As for the experimental part: In the first step, after the animals were decapitated, rat kidneys were harvested and immediately put on ice. Afterward whole kidneys were weighed and homogenized in prepared oxygenated Krebs–Ringer buffer at pH 7.4 (1:4; w/v). 100 µL of kidney homogenate was put into test tubes, pre-filled with oxygenated Krebs–Ringer buffer (containing 800 μL in every tube). […] At least six independent kidney samples were used for each experiment in this part of the study. Control samples, instead of the drug solution, contained an equal volume of a drug solvent (50 µL of DMSO or water). The reaction was stopped by adding 1 N HCl (100 μL per sample) on ice. […] Tissues from 14 animals were used in this part of the study. Presented data are shown as mean ± standard deviation (SD). The one-way analysis of variance (one-way ANOVA) followed by Tukey’s multiple comparison test was applied to analyze differences between tested COX inhibitors. The half-maximal inhibitory concentrations values (IC50) were assessed by fitting the experimental data to a four-parameter logistic equation. Statistical analyses were done with the use of GraphPad Prism 6. Values of p < 0.05 were considered to be statistically significant.

The target in another test is T1, KAT I (Rattus norvegicus, UniProt Q08415).
T1 construct: kidneys were homogenized in dialysate buffer (1:9; w/v); from tissue; host or cells: rat kidney (dialyzed supernatant of homogenate)
T1 sequence (Q08415 1-423): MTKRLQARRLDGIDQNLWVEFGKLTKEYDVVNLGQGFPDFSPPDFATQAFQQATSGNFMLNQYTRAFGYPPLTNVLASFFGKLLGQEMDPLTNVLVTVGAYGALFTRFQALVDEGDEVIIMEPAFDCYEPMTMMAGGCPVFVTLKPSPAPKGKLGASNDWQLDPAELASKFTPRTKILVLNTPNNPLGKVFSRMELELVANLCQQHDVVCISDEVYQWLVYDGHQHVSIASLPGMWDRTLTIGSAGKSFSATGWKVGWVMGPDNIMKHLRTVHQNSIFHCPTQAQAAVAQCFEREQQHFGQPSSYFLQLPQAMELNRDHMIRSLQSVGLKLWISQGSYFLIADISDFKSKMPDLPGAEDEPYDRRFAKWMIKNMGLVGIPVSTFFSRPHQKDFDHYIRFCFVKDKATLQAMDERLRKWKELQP
In words: KAT I activity in rat kidney in vitro. To be noted: 2 µM L-KYN; for effect on KAT I activity: 1 μM-1 mM drug; for IC50: read-out: IC50 of KAT I inhibition. It counts as biochemical. The method, then:
(§1) KAT I and KAT II activity in rat kidneys in vitro was analyzed based on procedures previously presented in a study by Gramsbergen et al.. […] The homogenate was centrifuged (15,133×g, 15 min) and then collected supernatant was dialyzed against 4 L of the dialysate buffer for 12 h at 8 °C with the use of cellulose membrane dialysis tubing. […] L-KYN concentration used in this analysis was equal to plasma KYN concentration, as reported by […] et al., and was sufficient to obtain appropriate enzymatic activity. The optimal pH was set at 9.5 and 7.0 for KAT I or KAT II activity analysis, respectively. Glutamine (2 mM), a KAT I inhibitor, was added to samples to measure KAT II's activity. The reaction was terminated by moving all samples into the ice-cold bath. Finally, all samples were centrifuged and analyzed by HPLC, as described in the previous section. […] To analyze KAT's activity, kidneys from 14 rats were used. Presented data are shown as mean ± standard deviation (SD). The one-way analysis of variance (one-way ANOVA) followed by Tukey's multiple comparison test was applied to analyze differences between tested COX inhibitors. The half-maximal inhibitory concentrations values (IC50) were assessed by fitting the experimental data to a four-parameter logistic equation. Statistical analyses were done with the use of GraphPad Prism 6. Values of p < 0.05 were considered to be statistically significant.

The next test addresses T2, KAT II (Rattus norvegicus, UniProt Q64602).
T2 construct: kidneys were homogenized in dialysate buffer (1:9; w/v); from tissue; host or cells: rat kidney (dialyzed supernatant of homogenate)
In words: KAT II activity in rat kidney in vitro. In kind it is biochemical. As to conditions: 2 µM L-KYN; for IC50: pH 7.0, 2 mM glutamine, read-out: IC50 of KAT II inhibition. The method, then: as §1

The test system of a further test is animal models of ADPKD. To be noted: animal model of ADPKD, cited from earlier work.
In test [2] the test system is KYNA content in the rat brain. To be noted: cited from earlier work; for KYNA content in the rat brain: after drug administration.
A further test concerns serum KYNA concentration. Set-up: method as in PMID 36271950. As to conditions: 20 healthy volunteers, acute administration, 5 h after drug administration; cited from earlier work.
Setting [3] is: highest concentration tested 1 mM.
Setting [4] is: pH 9.5, highest concentration tested 1 mM.

T2 sequence (Q64602 30-425): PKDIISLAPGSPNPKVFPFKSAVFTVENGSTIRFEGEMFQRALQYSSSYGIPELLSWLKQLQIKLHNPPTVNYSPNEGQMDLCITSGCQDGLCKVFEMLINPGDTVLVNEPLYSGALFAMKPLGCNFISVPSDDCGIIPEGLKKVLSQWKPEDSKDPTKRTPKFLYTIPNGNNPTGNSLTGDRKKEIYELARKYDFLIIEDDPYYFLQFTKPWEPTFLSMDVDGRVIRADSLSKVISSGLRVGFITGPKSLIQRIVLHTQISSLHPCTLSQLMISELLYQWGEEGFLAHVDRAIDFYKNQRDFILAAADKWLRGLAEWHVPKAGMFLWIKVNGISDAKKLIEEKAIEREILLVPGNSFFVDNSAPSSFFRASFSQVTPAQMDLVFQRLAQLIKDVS

Regarding `CC(=O)Nc1ccc(O)cc1` [acetaminophen], in test [1] (1 μM-1 mM drug), the “effect on KYNA production” value is “did not change KYNA production”. Besides, the “effect on KAT I activity” value at KAT I is given as “did not affect the activity of KAT I”. Besides, the “effect on KAT II activity” value on KAT II (1 μM-1 mM drug) is listed as “not shown to inhibit KAT II activity”.
For the compound `CC(=O)Oc1ccccc1C(=O)O` [acetylsalicylic acid], the IC50 (in test [1] (setting [3]); on KAT II (setting [3])) was above 1000 µM each time. The “effect on KAT I activity” value at KAT I was “did not affect the activity of KAT I”.
For `Cc1ccc(-c2cc(C(F)(F)F)nn2-c2ccc(S(N)(=O)=O)cc2)cc1` [celecoxib], the cysts volume result in the test on animal models of ADPKD (selective COX-2 blockade) is recorded as “decrease cysts volume”.
`O=C(O)Cc1ccccc1Nc1c(Cl)cccc1Cl` [diclofenac, diclofenac sodium salt]: the IC50 was 230 µM in test [1]; above 1000 µM on KAT I (setting [4]); 191 µM at KAT II (2 h, 37 °C). The “decrease of KYNA synthesis” value in test [1] (concentration not given) is 64%. Moreover, in test [2], the “KYNA content in the rat brain” value was “elevated KYNA levels”. Further, the “KYNA concentration in the rat brain” value in test [2] (following tail ischemia) is “increased KYNA concentration”.
`CC(C)Cc1ccc(C(C)C(=O)O)cc1` (stereo not shown) [ibuprofen]: the IC50 (in test [1] (setting [3]); on KAT II (setting [3])) was above 1000 µM in each case. For the same compound, the “effect on KAT I activity” value at KAT I is “did not affect the activity of KAT I”. In addition, in the test on serum KYNA concentration, the “serum KYNA concentration” value is “increases serum KYNA concentration”.
Regarding `COc1ccc2c(c1)c(CC(=O)O)c(C)n2C(=O)c1ccc(Cl)cc1` [indomethacin], the half-inhibitory concentration (IC50) in test [1] is 246 µM; on KAT I (pH 9.5, 2 h, 37 °C), 503 µM; at KAT II (2 h, 37 °C) it was 420 µM. Besides, the “KYNA content in the rat brain” value in test [2] was “elevated KYNA levels”.
Turning to `Cc1cnc(NC(=O)C2=C(O)c3ccccc3S(=O)(=O)N2C)s1` [meloxicam, meloxicam sodium salt hydrate], the IC50 is above 1000 µM in test [1] (setting [3]); 310 µM on KAT I (pH 9.5, 2 h, 37 °C); 155 µM at KAT II (2 h, 37 °C). Moreover, the “KYNA content in the rat brain” value in test [2] is recorded as “Decreased KYNA content”.
As to `COc1ccc2cc([C@H](C)C(=O)O)ccc2c1` [naproxen, naproxen sodium], the IC50 in test [1] was 464 µM; on KAT I (setting [4]) it was above 1000 µM; at KAT II (2 h, 37 °C), 504 µM.
In the case of `CS(=O)(=O)Nc1ccc([N+](=O)[O-])cc1Oc1ccccc1` [nimesulide], the IC50 in test [1] is 473 µM; at KAT I (pH 9.5, 2 h, 37 °C) it was 128 µM; at KAT II (setting [3]), above 1000 µM.
Regarding `CN1C(C(=O)Nc2ccccn2)=C(O)c2ccccc2S1(=O)=O` [piroxicam], the IC50 on KAT I (setting [4]) and on KAT II (setting [3]) was above 1000 µM each time.
Turning to `CC1=C(CC(=O)O)c2cc(F)ccc2/C1=C\c1ccc([S+](C)[O-])cc1` (stereo not shown) [sulindac], the cysts volume entry in the test on animal models of ADPKD (nonselective COX inhibition) is given as “decrease cysts volume”.
